Data as given in patent CN107475146A, “一种链霉菌及其代谢产物粉蝶霉素类化合物在抗肾癌中的应用” (priority 2017, dated 2017).

How the values were obtained:
Format in all cases: cell-based
[1] = tested on: OS-RC-2 human renal cancer cell line [OS-RC-2人肾癌细胞株]; test: CCK-8 assay, inhibition of proliferation of OS-RC-2 human renal cancer cells; details: for IC50: CCK-8, 72 h
[2] = tested on: 786-O human renal cancer cell line [786-O人肾癌细胞株]; test: CCK-8 assay, inhibition of proliferation of 786-O human renal cancer cells
[3] = tested on: ACHN human renal cancer cell line [ACHN人肾癌细胞株]; test: CCK-8 assay, inhibition of proliferation of ACHN human renal cancer cells; details: 72 h
[4] = tested on: 786-O and ACHN cells [786-O和ACHN细胞]; test: CCK-8 assay, 786-O and ACHN human renal cancer cells, result stated jointly for both lines

**Q.** CC=C(C)C(O)C(C)C=C(C)C=CCC(C)=CCc1nc(OC)c(OC)c(O)c1C (centres unmarked) [化合物1, Piericidin A] was tested. Which IC50 ([1]; Homo sapiens) did it give?
**A.** The IC50 was 5.16 µM.

**Q.** What about the IC50 ([2]; Homo sapiens, 786-0, 72 h) of the same compound?
**A.** Its IC50 is 29.9 µM.

**Q.** What about the IC50 ([3]; Homo sapiens) of the same compound?
**A.** The IC50 was 0.4 µM.

**Q.** What about the IC50 ([4]; Homo sapiens, joint range over compounds 1, 2, 4 and 5, CCK-8, 72 h) of the same compound?
**A.** Its IC50 is 0.4 to 72 µM.

**Q.** How did the IC50 [1] turn out when IT-143-A [compound 4] was run?
**A.** Its IC50 is 20.5 µM.

**Q.** What about the IC50 ([2]; 72 h) of the same compound?
**A.** The IC50 was 61.1 µM.

**Q.** Which results are given for IT-143-B [化合物5]?
**A.** IC50 [1]: 42.1 µM; IC50 ([2]; 72 h): 72 µM

**Q.** Which IC50 [1] does the source give for Piericidin A2 [化合物2] here?
**A.** The IC50 was 16.4 µM.

**Q.** What about the IC50 ([2]; 72 h) of the same compound?
**A.** The IC50 was 50.3 µM.

**Q.** What about the IC50 [3] of the same compound?
**A.** Its IC50 is 14.2 µM.

**Q.** What does the source list for Piericidin C2 [化合物3]?
**A.** IC50 [1]: 22.4 µM; IC50 ([2]; 72 h): > 100 µM

**Q.** For Piericidin s3a [化合物6], which IC50 [1] is on record?
**A.** Its IC50 is 30.9 µM.

**Q.** What about the inhibitory activity ([1]; in words) of the same compound?
**A.** Its inhibitory activity is “具有抑制活性”.

**Q.** What about the IC50 ([2]; 72 h) of the same compound?
**A.** The IC50 was over 100 µM.

**Q.** What about the selectivity ([4]; in words) of the same compound?
**A.** The selectivity was “具有一定的选择性”.
